In publication PMC9079729, “Conservation of the conformational dynamics and ligand binding within M49 enzyme family” (RSC Advances, 2018):
Residues, ends and D or L forms follow the SMILES beside them.

Columns and labels:
[1] = target: T1, yDPP III (Saccharomyces cerevisiae, UniProt Q08225); experiment: Inhibition of DPP III hydrolysis of Arg2-2NA by tynorphin; assay type: biochemical, yeast (Saccharomyces cerevisiae); settings: substrate Arg2-2NA, from initial hydrolysis rates, eq. 1
T1 construct: His6 (C); made in house; host or cells: E. coli
T1 sequence (Q08225 1-711): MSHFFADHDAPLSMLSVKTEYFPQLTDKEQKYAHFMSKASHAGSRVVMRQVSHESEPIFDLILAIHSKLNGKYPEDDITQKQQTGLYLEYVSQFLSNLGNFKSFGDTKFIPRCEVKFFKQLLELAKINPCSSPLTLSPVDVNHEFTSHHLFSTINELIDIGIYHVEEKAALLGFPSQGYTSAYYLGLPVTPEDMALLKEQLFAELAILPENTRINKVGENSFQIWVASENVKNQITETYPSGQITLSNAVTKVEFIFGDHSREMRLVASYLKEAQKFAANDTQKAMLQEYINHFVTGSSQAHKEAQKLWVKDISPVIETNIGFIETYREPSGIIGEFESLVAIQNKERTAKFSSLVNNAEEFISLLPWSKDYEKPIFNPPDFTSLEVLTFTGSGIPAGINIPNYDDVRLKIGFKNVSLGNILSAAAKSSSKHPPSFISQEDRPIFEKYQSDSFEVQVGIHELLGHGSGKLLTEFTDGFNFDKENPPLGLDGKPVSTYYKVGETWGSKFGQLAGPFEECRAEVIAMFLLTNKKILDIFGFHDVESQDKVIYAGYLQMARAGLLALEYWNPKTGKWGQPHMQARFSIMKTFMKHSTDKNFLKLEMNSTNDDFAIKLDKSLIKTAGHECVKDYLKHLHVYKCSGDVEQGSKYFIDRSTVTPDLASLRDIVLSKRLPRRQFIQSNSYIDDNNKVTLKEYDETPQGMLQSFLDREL
Method: (§1) The Km values for hydrolysis of fluorogenic substrate Arg2-2NA were determined at pH 7.4 (20 mM Tris–HCl buffer) and at 25 °C, from the initial reaction rates as previously described.[26]
(§2) Enzyme inhibition studies with tynorphin were performed using the Arg2-2NA as a substrate, according to Baršun et al.[36] The inhibition constant, Ki, was calculated according to the equation:1 Ki = i/(v0/vi − 1)·Km/(Km + s)where v0 and vi are the initial hydrolysis rates of Arg2-2NA (given in concentration s) catalyzed by DPP III in the absence and presence of inhibitor concentration (i), and Km is the Michaelis constant.

[2] = target: T2, CaDPP III (Caldithrix abyssi, UniProt H1XW48); experiment: as above; assay type: biochemical; settings: substrate Arg2-2NA, from initial hydrolysis rates, eq. 1
T2 construct: made in house; host or cells: E. coli
T2 sequence (H1XW48 19-558): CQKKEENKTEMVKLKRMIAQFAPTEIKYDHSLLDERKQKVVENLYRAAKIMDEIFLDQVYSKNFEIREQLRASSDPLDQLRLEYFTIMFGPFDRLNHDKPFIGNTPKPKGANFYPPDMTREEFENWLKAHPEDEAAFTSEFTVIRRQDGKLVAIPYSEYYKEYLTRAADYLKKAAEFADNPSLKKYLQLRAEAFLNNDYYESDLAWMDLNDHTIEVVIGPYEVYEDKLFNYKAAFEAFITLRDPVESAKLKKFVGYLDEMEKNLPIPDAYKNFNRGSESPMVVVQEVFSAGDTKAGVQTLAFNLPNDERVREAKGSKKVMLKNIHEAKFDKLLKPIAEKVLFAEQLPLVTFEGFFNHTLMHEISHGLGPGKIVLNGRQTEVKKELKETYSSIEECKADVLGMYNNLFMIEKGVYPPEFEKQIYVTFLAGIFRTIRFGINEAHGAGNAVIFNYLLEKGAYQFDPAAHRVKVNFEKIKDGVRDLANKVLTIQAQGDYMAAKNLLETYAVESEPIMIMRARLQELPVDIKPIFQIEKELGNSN
Method: as §1, §2

Compound CC(C)[C@H](N)C(=O)N[C@H](C(=O)N[C@@H](Cc1ccc(O)cc1)C(=O)N1CCC[C@H]1C(=O)N[C@@H](Cc1c[nH]c2ccccc12)C(=O)O)C(C)C [tynorphin] (H-VVYPW-OH) has a Ki [1] of 0.47 µM and a Ki [2] of 16.8 µM.
